# According to patent publication US9278914B2, “SARMs and method of use thereof” (UNIVERSITY OF TENNESSEE RESEARCH FOUNDATION, priority 2004, dated 2016):
# How the values were obtained:
# [1] = tested on: intact male Sprague-Dawley rats; test: Anabolic and androgenic activity in intact male rats, daily oral gavage; assay type: in vivo, rat
# Description: The test article for this study was weighed and dissolved in 10% DMSO (Fisher) diluted with PEG 300 (Acros Organics, N.J.) for preparation of the appropriate dosage concentrations. The animals were housed in groups of 2 to 3 animals per cage. Animals were randomly assigned to one of seven groups consisting of 4 to 5 animals per group. Control groups (intact and ORX) were administered vehicle daily. […] Where appropriate, animals were castrated on day one of the study. Treatment with compound of formula S-II began nine days post ORX and was administered daily via oral gavage for fourteen days.
# (§1) The animals were sacrificed under anesthesia (ketamine/xyalzine, 87:13 mg/kg) and body weights were recorded. In addition, ventral prostate, seminal vesicles, and levator ani muscle were removed, individually weighed, normalized to body weight, and expressed as a percentage of intact control. Student's T-test was used to compare individual dose groups to the intact control group. Significance was defined a priori as a P-value<0.05. Ventral prostate and seminal vesicle weights were evaluated as a measure of androgenic activity, whereas levator ani muscle weight was evaluated as a measure of anabolic activity. Blood was collected from the abdominal aorta, centrifuged, and sera were frozen at −80° C. prior to determination of serum hormone levels. Serum luteinizing hormone (LH) and follicle stimulating hormone (FSH) concentrations were determined.
# (§2) The test article for this study was weighed and dissolved in 10% DMSO (Fisher) diluted with PEG 300 (Acros Organics, N.J.) for preparation of the appropriate dosage concentrations. The animals were housed in groups of 2 to 3 animals per cage. Animals were randomly assigned to one of seven groups consisting of 4 to 5 animals per group. Control groups (intact and ORX) were administered vehicle daily. Compound of formula S-XXIII was administered via oral gavage at doses of 0.01, 0.03, 0.1, 0.3, 0.75, and 1 mg/day to both intact and ORX groups. Where appropriate, animals were castrated on day one of the study. Treatment with compound of formula S-XXIII began nine days post ORX and was administered daily via oral gavage for fourteen days.
# as §2, with “S-XXIV” for “S-XXIII”, “study.” for “study. Treatment with compound of formula S-XXIII began nine days post ORX and was administered daily via oral gavage for fourteen days.”
# [2] = tested on: castrated (ORX) male Sprague-Dawley rats; test: Anabolic and androgenic activity in castrated (ORX) male rats, daily oral gavage for fourteen days; assay type: in vivo, rat; conditions: ORX rats
# Description: Male Sprague-Dawley rats weighing approximately 200 g were purchased from Harlan Bioproducts for Science (Indianapolis, Ind.).
# The test article for this study was weighed and dissolved in 10% DMSO (Fisher) diluted with PEG 300 (Acros Organics, N.J.) for preparation of the appropriate dosage concentrations. […] Animals were randomly assigned to one of seven groups consisting of 4 to 5 animals per group. Control groups (intact and ORX) were administered vehicle daily. […] Where appropriate, animals were castrated on day one of the study.
# as §1, with “In” for “The animals were sacrificed under anesthesia (ketamine/xyalzine, 87:13 mg/kg) and body weights were recorded. In”
# as §2, with “The animals were housed in groups of 2 to 3 animals per cage.” left out
# Male Sprague-Dawley rats weighing approximately 200 g were purchased from Harlan Bioproducts for Science (Indianapolis, Ind.). […] Regenerative effects of the compound of formula S-XXIV in chronically (9 days) ORX rats was similarly evaluated.
# as §2, with “The animals were housed in groups of 2 to 3 animals per cage.” left out, “S-XXIV” for “S-XXIII”
# Male Sprague-Dawley rats weighing approximately 200 g were purchased from Harlan Bioproducts for Science (Indianapolis, Ind.). […] Anabolic and androgenic activity of compound of formula S-XXV in intact animals was evaluated, and the dose response in acutely orchidectomized (ORX) animals was evaluated as well.
# The compound was weighed and dissolved in 10% DMSO (Fisher) diluted with PEG 300 (Acros Organics, N.J.) for preparation of the appropriate dosage concentrations.
# [3] = Pharmacokinetics in beagle dogs; assay type: in vivo; conditions: dog, plasma
smiles,measurement,setting,value
"C[C@](O)(COc1ccc(Cl)c(F)c1)C(=O)Nc1ccc(C#N)c(C(F)(F)F)c1 [S-II, (S)-3-(4-chloro-3-fluorophenoxy)-N-(4-cyano-3-(trifluoromethyl)phenyl)-2-hydroxy-2-methylpropanamide]",Levator ani muscle weight,[1]; 0.01 mg/day oral,100%±10%
same,Prostate weight,[1]; 0.01 mg/day oral,117%±20%
same,Levator ani muscle weight,[1]; 0.03 mg/day oral,98%±7%
same,Prostate weight,[1]; 0.03 mg/day oral,98%±15%
same,Levator ani muscle weight,[1]; 0.1 mg/day oral,110%±5%
same,Prostate weight,[1]; 0.1 mg/day oral,82%±20%
same,Levator ani muscle weight,[1]; 0.3 mg/day oral,110%±5%
same,Prostate weight,[1]; 0.3 mg/day oral,62%±5%
same,Levator ani muscle weight,[1]; 0.75 mg/day oral,125%±10%
same,Prostate weight,[1]; 0.75 mg/day oral,107%±30%
same,Levator ani muscle weight,[1]; 1 mg/day oral,129%±10%
same,Prostate weight,[1]; 1 mg/day oral,110%±14%
same,Levator ani muscle weight,[2]; 0.01 mg/day oral,50%±5%
same,Prostate weight,[2]; 0.01 mg/day oral,12%±3%
same,Seminal vesicle weight,[2]; 0.01 mg/day oral,11%±1%
same,Levator ani muscle weight,[2]; 0.03 mg/day oral,62%±6%
same,Prostate weight,[2]; 0.03 mg/day oral,26%±7%
same,Seminal vesicle weight,[2]; 0.03 mg/day oral,11%±1%
same,Levator ani muscle weight,[2]; 0.1 mg/day oral,89%±10%
same,Prostate weight,[2]; 0.1 mg/day oral,39%±6%
same,Seminal vesicle weight,[2]; 0.1 mg/day oral,27%±14%
same,Levator ani muscle weight,[2]; 0.3 mg/day oral,118%±6%
same,Prostate weight,[2]; 0.3 mg/day oral,60%±14%
same,Seminal vesicle weight,[2]; 0.3 mg/day oral,58%±18%
same,Levator ani muscle weight,[2]; 0.75 mg/day oral,134%±8%
same,Prostate weight,[2]; 0.75 mg/day oral,88%±16%
same,Seminal vesicle weight,[2]; 0.75 mg/day oral,86%±12%
same,Seminal vesicle weight,[2]; 1 mg/day oral,100%±8%
same,clearance,[3]; oral,0.36 ± 0.12 mL/min/kg
same,half-life,[3]; oral,2220 ± 1610 min
same,Vd,"[3]; oral, read-out: Vz",1.27 ± 0.352 L/kg
same,bioavailability,"[3]; po, peroral",72.5%
